Laboratory results taken from patent US20180021315A1, “METHODS OF TREATING HEARING DISORDERS” (Wayne State University, priority 2016, published 2018).

How the values were obtained:
Format in all cases: in vivo, rat
AC pyramidal neurons = assay: Patch clamp recording of miniature synaptic currents in AC slices after blast exposure
Protocol: Two groups of 7 rats each were exposed to blast shockwaves as described above, and an additional group of 7 rats was sham-exposed. One of the exposed groups was administered 3,6′-dithiothalidomide for five days starting on the day of the exposure, and the other exposed group was administered vehicle. Brain slides were prepared from the AC of the rats 10-20 days after the blast exposure. Pyramidal neurons were recorded using the patch clamp method. Miniature synaptic currents were recorded to assess the functional states of the excitatory and inhibitory synaptic transmission. Neurons were filled with biocytin, which was stained with immunocytochemistry to reveal the morphology of the recorded neurons.

DCN, IC and AC neurons = assay: Neurophysiological recordings of DCN, IC and AC after blast exposure; conditions: blast-exposed rats, 56 mg/kg i.p.
Protocol: Rats were exposed or sham-exposed to a blast shockwave. To determine whether TNF-α is involved in blast-induced tinnitus, the rats were injected once daily for 5 days with 3,6′-dithiothalidomide starting 7 days after blast exposure. Behavioral testing and ABR recordings started 1 day after drug injection and lasted for three weeks.
Neurophysiological recordings of the left DCN, right IC and right AC were performed 3 weeks after drug or vehicle injection. Each rat was anesthetized with a mixture of air (1 liter/min) and isoflurane (5% v/v) and then secured in a stereotaxic frame with hollow ear bars (model 1530; David Kopf Instruments, Tujunga, Calif.). A mixture of air (1 liter/min) and isoflurane (1.75-2.5% v/v) was used to maintain anesthesia during surgery and recordings. In order to maintain the rat's body temperature at 37° C., a thermostat-controlled blanket (Harvard Apparatus, Holliston, Mass.) was used during the procedure. For electrophysiological recording, electrode arrays were inserted into the DCN, IC, and AC. Prior to insertion, the electrode probe was dipped into a 3% DiI solution (1,10-dioctadecyl-3,3,30,30-tetramethylindocarbocyanine perchlorate; Invitrogen, Carlsbad, Calif.) prepared with dimethylformamide to label the electrode insertion tracks. By using a micromanipulator (model 1460-61; David Kopf Instruments), an eight-shank, 32-channel electrode probe (NeuroNexus Technologies, Ann Arbor, Mich.) was inserted into the DCN and the probe was inserted into a depth of […] below the DCN surface, corresponding to the fusiform cell layer. For the IC, a two-shank 32-Channel (NeuroNexus) probe was inserted 20° off of the sagittal plane and 30° off of the horizontal plane through the occipital cortex into the IC. To implant in the AC, a 32 (4×8) microwire array was implanted 2.7 to 5.8 mm posterior to the bregma, and ˜0.8-1.0 mm from the cortical surface. After probe placement, the brain was covered with agarose to avoid tissue swelling and drying. The probe connector was connected to a real-time signal processing system (RZ2, TDT) with a 25 kHz sampling rate and a 100-3000 Hz bandpass filter. Spontaneous activity, frequency tuning curves (FTCs), and acoustic stimulation with tone and noise bursts (BBN) was recorded. Spontaneous single- and multi-unit spikes were recorded twice; one 5 min prior to and one 5 min after frequency tuning curve (FTC) construction. Each spontaneous recording period lasted 5 min. FTCs were obtained to determine the frequency representation of each implanted electrode in the DCN, IC and AC using tone sweeps (50 ms in duration, 2-44 kHz, incremental steps of 2 dB, sound level range of 0-85 dB SPL).

[1] = test system: ionized calcium-binding adapter molecule 1 (Iba-1); assay: Iba-1 immunostaining densitometry of microglia after blast; conditions: immunostained microglia, FIG. 23A
From the text: FIGS. 23A and 23B depict densitometry measurements of ionized calcium-binding adapter molecule 1 (Iba-1) and TNF-α expression, respectively, as observed by fluorescence microscopy of immunohistochemistry-stained microglia. […] Error bars in FIGS. 23A-23B depict standard deviation.

Structure (SMILES): O=C1NC(=S)CCC1N1C(=O)c2ccccc2C1=S (stereo not shown) [3,6′-dithiothalidomide]
- cumulative distribution of mIPSC frequency (blast-induced shift to lower frequencies) (AC pyramidal neurons; 56 mg/kg i.p., Kolmogorov-Smirnov Test p<0.001, FIG. 19): reversed this effect
- mIPSCs in recording traces of auditory cortical neurons (AC pyramidal neurons; blast-exposed rats, drug for five days from day of exposure, vs vehicle-treated, FIG. 17C): less reduction in mIPSCs
- mIPSC frequency (blast-induced reduction) (AC pyramidal neurons; blast-exposed rats, 56 mg/kg i.p. daily, FIG. 18B): completely abolished the blast-induced reduction
- mIPSC amplitude (AC pyramidal neurons; blast-exposed rats, 56 mg/kg i.p., relative to sham-blast controls, FIG. 18A): did not significantly change mIPSC amplitudes
- neuronal firing synchrony (correlogram ratio) (DCN, IC and AC neurons; DCN, IC and AC, FIGS. 22A-22C): significantly reduced neuronal firing synchrony
- spontaneous bursting rate in the DCN (DCN, IC and AC neurons; FIG. 20A): reduced bursting rates in blast-exposed animals to the control level
- spontaneous firing rate in the DCN (DCN, IC and AC neurons; FIG. 20B): reduced firing rates in blast-exposed animals to the control level
- spontaneous bursting rate in the AC (DCN, IC and AC neurons; FIG. 21A): reduced bursting rates in blast-exposed animals relative to vehicle
- spontaneous firing rate in the AC (DCN, IC and AC neurons; FIG. 21B): reduced firing rates in blast-exposed animals to the control level
- blast-induced microglial activation (Iba-I staining) [1]: not blocked
